Assay [1] is described as follows: Anti-inflammatory activity against human derived medium respond PBMC cells assessed as inhibition in stimulated IL-4 cytokine release incubated for 2 hrs in the presence of LPS/SEB/aCD28 by Luminex based sandwich immunoassay. It counts as functional, cell-based.
Assay [2] addresses Serine/threonine-protein kinase 3 (Homo sapiens) (UniProt Q13188). Briefly: Inhibition of MST2 (unknown origin) assessed as remaining activity at 1 uM by Kinome scan method relative to control.
Assay [3] has as its target Interleukin-1 receptor-associated kinase 1 (Homo sapiens) (UniProt P51617). The experiment in a line: Inhibition of human IRAK1 assessed as residual activity at 1 uM using RB-CTF as substrate in presence of 33P-ATP by ProQinase assay relative to control.
Assay [4] addresses Dual specificity mitogen-activated protein kinase kinase 2 (Homo sapiens) (UniProt P36507). The experiment in a line: Inhibition of human MEK2 assessed as residual activity at 1 uM using RBER-IRStide as substrate in presence of 33P-ATP by ProQinase assay relative to control.
For assay [5], the target named is MAP kinase p38 (Homo sapiens) (UniProt O15264+Q15759+Q16539+P53778). The experiment in a line: Inhibition of p38-MAPK in human THP-1 cells assessed as change in HSP27 phosphorylation at Ser82 level at 80 nM preincubated for 30 mins in the presence of TNFalpha stimulation for 20 mins by western blot analysis. The class given is cell-based. (In general: Immunoblotting shows a protein as a band on a membrane.)

Assay [6] addresses G protein-coupled receptor kinase 3 (Homo sapiens) (UniProt P35626). Briefly: Inhibition of human GRK3 assessed as residual activity at 1 uM using casein as substrate in presence of 33P-ATP by ProQinase assay relative to control.
The test system of assay [7] is Epidermal growth factor receptor (Homo sapiens), P00533 [UNDEFINED MUTATION]. Briefly: Inhibition of EGFR L747-S752del/P753S mutant (unknown origin) assessed as remaining activity at 1 uM by Kinome scan method relative to control.
Sequence of Epidermal growth factor receptor (Homo sapiens), P00533 [UNDEFINED MUTATION] (P00533 whole entry, looked up, stated change not applied): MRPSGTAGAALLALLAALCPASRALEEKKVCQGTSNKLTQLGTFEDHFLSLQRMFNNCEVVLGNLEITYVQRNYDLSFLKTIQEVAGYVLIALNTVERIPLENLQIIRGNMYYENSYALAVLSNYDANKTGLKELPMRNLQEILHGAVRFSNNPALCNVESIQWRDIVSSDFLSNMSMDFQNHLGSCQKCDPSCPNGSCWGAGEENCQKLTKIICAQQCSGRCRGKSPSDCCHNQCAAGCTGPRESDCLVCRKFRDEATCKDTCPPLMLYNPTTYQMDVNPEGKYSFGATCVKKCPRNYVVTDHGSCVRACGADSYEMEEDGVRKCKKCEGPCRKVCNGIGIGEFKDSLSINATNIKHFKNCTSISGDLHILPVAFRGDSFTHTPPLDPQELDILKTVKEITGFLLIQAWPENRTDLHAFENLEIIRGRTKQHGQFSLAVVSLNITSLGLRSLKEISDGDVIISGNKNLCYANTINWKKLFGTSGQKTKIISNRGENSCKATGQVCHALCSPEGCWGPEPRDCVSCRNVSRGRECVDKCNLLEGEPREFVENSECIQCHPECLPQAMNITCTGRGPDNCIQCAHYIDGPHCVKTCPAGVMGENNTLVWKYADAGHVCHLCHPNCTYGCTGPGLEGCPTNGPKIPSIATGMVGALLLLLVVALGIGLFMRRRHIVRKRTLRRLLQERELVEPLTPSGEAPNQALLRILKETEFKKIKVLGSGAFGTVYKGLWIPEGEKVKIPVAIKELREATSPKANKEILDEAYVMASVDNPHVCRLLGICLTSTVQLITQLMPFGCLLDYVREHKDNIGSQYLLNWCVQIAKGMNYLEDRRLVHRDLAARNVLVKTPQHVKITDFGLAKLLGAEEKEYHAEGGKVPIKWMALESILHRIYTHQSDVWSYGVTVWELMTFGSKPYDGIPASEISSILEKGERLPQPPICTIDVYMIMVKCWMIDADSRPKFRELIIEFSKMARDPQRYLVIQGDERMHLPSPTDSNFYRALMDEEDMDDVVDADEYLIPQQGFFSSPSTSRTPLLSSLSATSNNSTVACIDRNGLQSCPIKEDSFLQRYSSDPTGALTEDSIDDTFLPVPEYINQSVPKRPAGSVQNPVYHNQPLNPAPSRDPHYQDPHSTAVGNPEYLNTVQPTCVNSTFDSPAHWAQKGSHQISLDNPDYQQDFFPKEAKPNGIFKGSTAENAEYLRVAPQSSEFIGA
The target in assay [8] is Receptor tyrosine-protein kinase erbB-2 (Homo sapiens) (UniProt P04626). Briefly: Inhibition of ERBB2 (unknown origin) assessed as remaining activity at 1 uM by Kinome scan method relative to control.
Sequence of Receptor tyrosine-protein kinase erbB-2 (Homo sapiens) (P04626 whole entry): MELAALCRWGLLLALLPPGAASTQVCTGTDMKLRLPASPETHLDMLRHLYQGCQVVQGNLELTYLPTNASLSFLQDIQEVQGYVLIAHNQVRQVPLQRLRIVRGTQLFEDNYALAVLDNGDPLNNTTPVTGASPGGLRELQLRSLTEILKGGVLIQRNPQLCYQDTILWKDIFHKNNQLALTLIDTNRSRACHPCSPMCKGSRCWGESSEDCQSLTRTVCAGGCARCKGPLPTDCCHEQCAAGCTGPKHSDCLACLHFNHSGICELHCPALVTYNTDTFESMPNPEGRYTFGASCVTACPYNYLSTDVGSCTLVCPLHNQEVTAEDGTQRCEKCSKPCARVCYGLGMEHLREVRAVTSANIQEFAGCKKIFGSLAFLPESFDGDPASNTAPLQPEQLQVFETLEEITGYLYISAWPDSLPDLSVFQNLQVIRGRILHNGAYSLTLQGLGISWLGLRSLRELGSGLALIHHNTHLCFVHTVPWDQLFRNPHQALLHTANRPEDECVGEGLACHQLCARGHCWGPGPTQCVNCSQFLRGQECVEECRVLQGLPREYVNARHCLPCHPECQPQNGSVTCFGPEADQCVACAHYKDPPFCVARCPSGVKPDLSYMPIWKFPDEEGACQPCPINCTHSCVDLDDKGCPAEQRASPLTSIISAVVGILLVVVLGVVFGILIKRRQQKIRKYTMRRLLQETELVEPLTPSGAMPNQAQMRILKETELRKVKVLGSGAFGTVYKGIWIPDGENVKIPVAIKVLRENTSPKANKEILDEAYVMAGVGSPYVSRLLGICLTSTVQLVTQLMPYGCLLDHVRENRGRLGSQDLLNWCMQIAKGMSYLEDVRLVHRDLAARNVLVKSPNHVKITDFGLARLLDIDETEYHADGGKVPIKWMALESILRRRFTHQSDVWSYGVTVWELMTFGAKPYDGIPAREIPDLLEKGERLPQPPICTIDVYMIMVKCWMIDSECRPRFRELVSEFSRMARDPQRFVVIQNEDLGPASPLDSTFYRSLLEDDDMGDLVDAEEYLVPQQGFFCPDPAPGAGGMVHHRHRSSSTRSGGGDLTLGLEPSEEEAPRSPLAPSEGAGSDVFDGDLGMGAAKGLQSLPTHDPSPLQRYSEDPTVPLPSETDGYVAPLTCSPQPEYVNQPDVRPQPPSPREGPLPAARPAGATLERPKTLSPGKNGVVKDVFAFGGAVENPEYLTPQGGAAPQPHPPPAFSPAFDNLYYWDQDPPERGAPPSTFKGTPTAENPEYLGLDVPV

Calls of active or inactive are those of the source. The calls are words filed in the database; no cut-off is given here.

Sequence of Serine/threonine-protein kinase 3 (Homo sapiens) (Q13188 whole entry): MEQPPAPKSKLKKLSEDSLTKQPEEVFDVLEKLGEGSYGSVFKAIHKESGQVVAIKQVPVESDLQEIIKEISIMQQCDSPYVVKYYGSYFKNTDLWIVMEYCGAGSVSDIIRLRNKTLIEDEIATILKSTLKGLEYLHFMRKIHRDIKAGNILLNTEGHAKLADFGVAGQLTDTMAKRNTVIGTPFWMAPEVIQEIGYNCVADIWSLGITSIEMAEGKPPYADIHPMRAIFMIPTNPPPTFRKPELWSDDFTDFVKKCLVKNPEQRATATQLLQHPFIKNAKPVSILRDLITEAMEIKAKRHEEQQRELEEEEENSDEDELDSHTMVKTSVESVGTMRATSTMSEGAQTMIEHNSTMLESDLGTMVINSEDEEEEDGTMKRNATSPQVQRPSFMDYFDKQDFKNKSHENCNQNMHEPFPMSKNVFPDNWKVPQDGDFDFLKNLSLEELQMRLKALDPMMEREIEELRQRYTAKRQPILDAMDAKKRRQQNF
Sequence of G protein-coupled receptor kinase 3 (Homo sapiens) (P35626 whole entry): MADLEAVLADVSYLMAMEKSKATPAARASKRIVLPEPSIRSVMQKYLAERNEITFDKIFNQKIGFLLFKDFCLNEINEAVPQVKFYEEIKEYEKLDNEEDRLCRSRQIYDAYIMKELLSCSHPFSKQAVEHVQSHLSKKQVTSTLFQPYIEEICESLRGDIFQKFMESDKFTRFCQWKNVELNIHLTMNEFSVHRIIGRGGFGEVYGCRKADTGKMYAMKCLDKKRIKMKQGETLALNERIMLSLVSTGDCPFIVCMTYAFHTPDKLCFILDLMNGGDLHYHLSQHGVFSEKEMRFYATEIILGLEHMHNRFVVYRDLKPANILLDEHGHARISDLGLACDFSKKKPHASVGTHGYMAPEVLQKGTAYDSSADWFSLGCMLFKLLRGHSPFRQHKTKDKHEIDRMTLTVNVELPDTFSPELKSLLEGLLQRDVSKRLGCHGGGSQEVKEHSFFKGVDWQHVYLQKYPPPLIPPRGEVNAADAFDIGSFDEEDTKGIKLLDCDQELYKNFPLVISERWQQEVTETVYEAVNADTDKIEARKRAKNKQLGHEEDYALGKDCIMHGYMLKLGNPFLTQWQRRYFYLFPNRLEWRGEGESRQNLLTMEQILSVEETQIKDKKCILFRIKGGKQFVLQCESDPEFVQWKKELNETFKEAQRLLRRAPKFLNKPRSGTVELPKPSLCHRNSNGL
Sequence of Interleukin-1 receptor-associated kinase 1 (Homo sapiens) (P51617 whole entry, looked up): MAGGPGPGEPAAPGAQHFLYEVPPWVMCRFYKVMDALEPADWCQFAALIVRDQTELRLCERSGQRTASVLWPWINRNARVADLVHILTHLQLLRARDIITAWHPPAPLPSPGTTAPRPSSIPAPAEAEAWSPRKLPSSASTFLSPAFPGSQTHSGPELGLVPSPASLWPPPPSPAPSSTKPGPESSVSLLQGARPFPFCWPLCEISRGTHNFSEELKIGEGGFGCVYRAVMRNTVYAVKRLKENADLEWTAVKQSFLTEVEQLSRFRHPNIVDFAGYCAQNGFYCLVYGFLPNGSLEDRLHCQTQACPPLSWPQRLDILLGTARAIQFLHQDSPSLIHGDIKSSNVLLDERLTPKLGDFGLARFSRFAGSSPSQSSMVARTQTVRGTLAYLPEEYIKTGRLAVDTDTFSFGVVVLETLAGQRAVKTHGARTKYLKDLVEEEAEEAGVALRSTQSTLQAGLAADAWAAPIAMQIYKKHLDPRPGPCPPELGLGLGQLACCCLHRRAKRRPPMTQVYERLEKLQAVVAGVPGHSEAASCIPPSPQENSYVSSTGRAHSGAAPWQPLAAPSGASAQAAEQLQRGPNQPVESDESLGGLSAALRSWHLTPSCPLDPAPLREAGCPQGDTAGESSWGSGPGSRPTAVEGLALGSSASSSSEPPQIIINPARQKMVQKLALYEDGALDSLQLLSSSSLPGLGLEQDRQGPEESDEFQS
Sequence of Dual specificity mitogen-activated protein kinase kinase 2 (Homo sapiens) (P36507 whole entry): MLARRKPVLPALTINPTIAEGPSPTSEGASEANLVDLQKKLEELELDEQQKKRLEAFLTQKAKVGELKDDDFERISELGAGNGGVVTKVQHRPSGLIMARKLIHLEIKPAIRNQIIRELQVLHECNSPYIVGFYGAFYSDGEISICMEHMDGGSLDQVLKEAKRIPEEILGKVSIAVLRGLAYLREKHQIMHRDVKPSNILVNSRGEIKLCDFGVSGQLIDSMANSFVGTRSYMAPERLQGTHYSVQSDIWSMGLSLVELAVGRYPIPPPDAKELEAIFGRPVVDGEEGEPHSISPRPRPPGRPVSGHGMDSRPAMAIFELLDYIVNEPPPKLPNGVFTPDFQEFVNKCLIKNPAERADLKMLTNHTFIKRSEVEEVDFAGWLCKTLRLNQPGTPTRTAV

Turning to `O=C1c2ccc(Nc3ccc(F)cc3F)cc2CCc2ccc(OC[C@H](O)CO)cc21` [Skepinone-L], the IC50 entry in assay [1] is on record as “Not Active”. Further, the Activity turned out to be 100% in assay [2]; 101% in assay [3]; 99% in assay [4]; 95% in assay [6]; 100% in assay [7]; 100% in assay [8]. Also, the inhibition entry in assay [5] is “Active”.

The record behind these values is ChEMBL document CHEMBL5696441 (Nat Chem Biol, 2011).
